In patent publication US8609173B2, “Compositions comprising sweetness enhancers and methods of making them” (Senomyx Inc., priority 2008, dated 2013):

Assays:
External panelists = test: Line scale (15-point sucrose equivalence) sensory test, Example 5, sucrose or LSB, pH 7.1; type: in vivo, Human
Description: (§1) Several types of sensory tests were used to determine the efficacy of 3-(4-amino-2,2-dioxide-1H-benzo[c][1,2,6]thiadiazin-5-yloxy)-2′,2′-dimethyl-N-propylpropanamide 3-(4-amino-2,2-dioxide-1H-benzo[c][1,2,6]thiadiazin-5-yloxy)-2′,2′-dimethyl-N-propylpropanamide in enhancing the sweetness of sucrose. Two types of tests were conducted: • 1) Sensory scaling tests were performed using a 15-point percent sucrose equivalence scale for sweetness in order to evaluate sweetness enhancement 3-(4-amino-2,2-dioxide-1H-benzo[c][1,2,6]thiadiazin-5-yloxy)-2′,2′-dimethyl-N-propylpropanamide 3-(4-amino-2,2-dioxide-1H-benzo[c][1,2,6]thiadiazin-5-yloxy)-2′,2′-dimethyl-N-propylpropanamide in sucrose or in fructose. • 2) Paired comparison tests (2-alternative forced choice difference tests) were used to determine sweetness equivalence for solutions of sucrose vs. 3-(4-amino-2,2-dioxide-1H-benzo[c][1,2,6]thiadiazin-5-yloxy)-2′,2′-dimethyl-N-propylpropanamide 3-(4-amino-2,2-dioxide-1H-benzo[c][1,2,6]thiadiazin-5-yloxy)-2′,2′-dimethyl-N-propylpropanamide or buffer vs. 3-(4-amino-2,2-dioxide-1H-benzo[c][1,2,6]thiadiazin-5-yloxy)-2′,2′-dimethyl-N-propylpropanamide 3-(4-amino-2,2-dioxide-1H-benzo[c][1,2,6]thiadiazin-5-yloxy)-2′,2′-dimethyl-N-propylpropanamide. Stimuli:
Tests were performed with sucrose or fructose. The sweetener was evaluated with and/or without 3-(4-amino-2,2-dioxide-1H-benzo[c][1,2,6]thiadiazin-5-yloxy)-2′,2′-dimethyl-N-propylpropanamide 3-(4-amino-2,2-dioxide-1H-benzo[c][1,2,6]thiadiazin-5-yloxy)-2′,2′-dimethyl-N-propylpropanamide at the appropriate concentration(s).
3-(4-amino-2,2-dioxide-1H-benzo[c][1,2,6]thiadiazin-5-yloxy)-2′,2′-dimethyl-N-propylpropanamide was prepared as a concentrated stock solution in ethanol to ensure dissolution of the 3-(4-amino-2,2-dioxide-1H-benzo[c][1,2,6]thiadiazin-5-yloxy)-2′,2′-dimethyl-N-propylpropanamide. Therefore, all taste solutions contained ethanol in the final solution. Samples without 3-(4-amino-2,2-dioxide-1H-benzo[c][1,2,6]thiadiazin-5-yloxy)-2′,2′-dimethyl-N-propylpropanamide also contained an equivalent concentration of ethanol. For samples involving 3-(4-amino-2,2-dioxide-1H-benzo[c][1,2,6]thiadiazin-5-yloxy)-2′,2′-dimethyl-N-propylpropanamide at 5-10 ppm (up to 28 μM), the final concentration of ethanol was 0.2%; 30-40 μM, 0.4% ethanol; 50 μM, 0.5% ethanol; and 100 μM, 1% ethanol.
Taste samples were also prepared in low sodium phosphate buffer (pH 7.1; “LSB”) lacking sucrose to evaluate the taste of 3-(4-amino-2,2-dioxide-1H-benzo[c][1,2,6]thiadiazin-5-yloxy)-2′,2′-dimethyl-N-propylpropanamide alone. Low sodium phosphate buffer consists of 0.3 mM KCl, 0.5 mM Na2HPO4, and 0.175 mM KH2PO4.
In scaling test situations, the samples were rated on a 15-point scale for sweetness, ranging from 0=0% sucrose to 15=15% sucrose. To evaluate attributes other than sweetness, references are used for training and are prepared according to the table below. Note that each reference was given a score of 5 on the 15-point scale.
External panelists were used for the tests. The exact number of panelists is reported with test results. Subjects were instructed not to eat or drink anything (except water) for at least 1 hour prior to the test.
Panelists rinsed their mouths with water prior to starting any test. Samples were presented to panelists in a randomized, counterbalanced order. Panelists rinsed with water and had up to a 1 minute delay to clear the mouth of any tastes after each evaluation. Two replicates of each test were performed, unless otherwise noted.
In scaling tests, panelists rate samples monadically for the attributes listed above (see Stimuli). In paired comparison tests, panelists taste pairs of solutions and indicate which sample is perceived to be sweeter.
Attributes of interest are reported for each scaling taste test.
Panelists rinsed their mouths with water prior to starting any test. Samples were presented to panelists in a randomized, counterbalanced order. […]

Panelists = test: Paired comparison taste test, Example 7, sucrose or fructose solutions; type: in vivo, Human; conditions: 1% Sucrose chosen, vs 28 μM (9.9 ppm) compound; n = 32
Description: as §1
Panelists evaluated two solutions in a paired comparison taste test procedure. They were instructed to select the sweeter of the two samples. They were also asked to comment on how difficult it was to tell the difference in sweetness between both samples and if any off tastes were perceived.
Panelists evaluated two solutions in a paired comparison taste test procedure and were instructed to select the sweeter of the two samples.

In the case of OC[C@H]1O[C@@](CO)(O[C@H]2O[C@H](CO)[C@@H](O)[C@H](O)[C@H]2O)[C@@H](O)[C@@H]1O [Sucrose, sucrose], the “Average Sweetness” value (External panelists; 1% Sucrose, Table 25, n = 30) was 1.2, the “Average Bitterness” value (External panelists; 1% Sucrose, Table 26, n = 30) was 0.4 and the “Average Sweetness” value (External panelists; 2% Sucrose, Table 20, n = 30) was 2.3. The “Average Bitterness” value (External panelists; 2% Sucrose, Table 21, n = 30) was 0.3, the “Average Sweetness” value (External panelists; 2% Sucrose, Table 22, n = 14) was 2.3 and the “Average Sweetness” value (External panelists; 2% Sucrose, Table 25, n = 30) was 2.2. The “Average Bitterness” value (External panelists; 2% Sucrose, Table 26, n = 30) was 0.3, the “Average Sweetness” value (External panelists; 2% Sucrose, Table 27, n = 28) was 2.0 and the “Average Bitterness” value (External panelists; 2% Sucrose, Table 28, n = 28) was 0.1. For the same molecule, the “Average Sweetness” value (External panelists; 4% Sucrose, Table 20, n = 30) was 4.2, the “Average Bitterness” value (External panelists; 4% Sucrose, Table 21, n = 30) was 0.2 and the “Average Sweetness” value (External panelists; 4% Sucrose, Table 22, n = 14) was 4.3. For the same molecule, the “Average Sweetness” value (External panelists; 4% Sucrose, Table 25, n = 30) was 4.4, the “Average Bitterness” value (External panelists; 4% Sucrose, Table 26, n = 30) was 0.3 and the “Average Sweetness” value (External panelists; 4% Sucrose, Table 27, n = 28) was 4.2. For the same molecule, the “Average Bitterness” value (External panelists; 4% Sucrose, Table 28, n = 28) was 0.1, the “Average Sweetness” value (External panelists; 6% Sucrose, Table 16, n = 15) was 6.3 and the “Average Bitterness” value (External panelists; 6% Sucrose, Table 17, n = 15) was 0.3. The “Average Sweetness” value (External panelists; 6% Sucrose, Table 18, n = 24) was 6.2, the “Average Bitterness” value (External panelists; 6% Sucrose, Table 19, n = 24) was 0.2 and the “Average Sweetness” value (External panelists; 6% Sucrose, Table 20, n = 30) was 5.8. For the same molecule, the “Average Bitterness” value (External panelists; 6% Sucrose, Table 21, n = 30) was 0.2, the “Average Sweetness” value (External panelists; 6% Sucrose, Table 22, n = 14) was 5.7 and the “Average Sweetness” value (External panelists; 6% Sucrose, Table 23, n = 30) was 6.7. For the same molecule, the “Average Bitterness” value (External panelists; 6% Sucrose, Table 24, n = 30) was 0.4, the “Average Sweetness” value (External panelists; 6% Sucrose, Table 25, n = 30) was 6.4 and the “Average Bitterness” value (External panelists; 6% Sucrose, Table 26, n = 30) was 0.6. The “Average Sweetness” value (External panelists; 6% Sucrose, Table 27, n = 28) was 6.1, the “Average Bitterness” value (External panelists; 6% Sucrose, Table 28, n = 28) was 0.1 and the “Average Sweetness” value (External panelists; 8% Sucrose, Table 16, n = 15) was 7.7. The “Average Bitterness” value (External panelists; 8% Sucrose, Table 17, n = 15) was 0.1, the “Average Sweetness” value (External panelists; 8% Sucrose, Table 18, n = 24) was 8.3 and the “Average Bitterness” value (External panelists; 8% Sucrose, Table 19, n = 24) was 0.1. For the same molecule, the “Average Sweetness” value (External panelists; 8% Sucrose, Table 23, n = 30) was 8.3, the “Average Bitterness” value (External panelists; 8% Sucrose, Table 24, n = 30) was 0.4 and the “Average Sweetness” value (External panelists; 8% Sucrose, Table 25, n = 30) was 8.7. For the same molecule, the “Average Bitterness” value (External panelists; 8% Sucrose, Table 26, n = 30) was 0.3, the “Average Sweetness” value (External panelists; 8% Sucrose, Table 27, n = 28) was 8.4 and the “Average Bitterness” value (External panelists; 8% Sucrose, Table 28, n = 28) was 0.2. The “Average Sweetness” value (External panelists; 9% Sucrose, Table 16, n = 15) was 9.0, the “Average Bitterness” value (External panelists; 9% Sucrose, Table 17, n = 15) was 0.1 and the “Average Sweetness” value (External panelists; 9% Sucrose, Table 18, n = 24) was 9.3. For the same molecule, the “Average Bitterness” value (External panelists; 9% Sucrose, Table 19, n = 24) was 0.1, the “Average Sweetness” value (External panelists; 10% Sucrose, Table 16, n = 15) was 9.2 and the “Average Bitterness” value (External panelists; 10% Sucrose, Table 17, n = 15) was 0.2. The “Average Sweetness” value (External panelists; 10% Sucrose, Table 18, n = 24) was 9.8, the “Average Bitterness” value (External panelists; 10% Sucrose, Table 19, n = 24) was 0.1 and the “Average Sweetness” value (External panelists; 10% Sucrose, Table 23, n = 30) was 10.3. For the same molecule, the “Average Bitterness” value (External panelists; 10% Sucrose, Table 24, n = 30) was 0.2, the “Average Sweetness” value (External panelists; 10% Sucrose, Table 25, n = 30) was 10.5 and the “Average Bitterness” value (External panelists; 10% Sucrose, Table 26, n = 30) was 0.3. For the same molecule, the “Average Sweetness” value (External panelists; 10% Sucrose, Table 27, n = 28) was 9.6, the “Average Bitterness” value (External panelists; 10% Sucrose, Table 28, n = 28) was 0.1 and the “Average Sweetness” value (External panelists; 12% Sucrose, Table 18, n = 24) was 11.1. The “Average Bitterness” value (External panelists; 12% Sucrose, Table 19, n = 24) was 0.0, the “Average Sweetness” value (External panelists; 12% Sucrose, Table 23, n = 30) was 11.2 and the “Average Bitterness” value (External panelists; 12% Sucrose, Table 24, n = 30) was 0.3. For the same molecule, the “Sample selected as more sweet by panelists, Total” value (Panelists) was 28.
